The target in the test is T1, MTNR1A (Homo sapiens, UniProt P48039).
T1 construct: purchased Promega (in-house HiBiT-GPCR construct library, NanoBRET)
In words: NanoBRET screen HiBiT-MTNR1A in HEK293. Format: binding. On the procedure: Each tracer candidate was screened across the entire library of HiBiT-GPCR constructs using NanoBRET as the detection modality. As depicted in Figure 4A, the specificity of interactions was evaluated through decrease in BRET due to competitive displacement of a bound tracer by excess parental compound. Each tracer was analyzed for binding to each HiBiT-GPCR fusion in the absence and in the presence of competing parental compound. Briefly, HEK293 cells were transfected with HiBiT-GPCR constructs diluted into promoterless DNA to reduce expression and maximize translocation to the cell surface. Each tracer candidate was then screened at concentrations of 1 μM and 0.1 μM across cells expressing these fusions. Cells were treated for 1.5 h with tracer either alone or in the presence of 20 μM competing parental compound (i.e., control). BRET was measured upon addition of purified LgBiT and subsequent complementation with HiBiT genetically fused to a GPCR. The specificity of interactions was assessed through a decrease in BRET signal due to competitive displacement of the bound tracer. To further gauge the robustness of these interactions, the fold response over the control (i.e., BRETtracer/BRETcontrol) was calculated. We chose a 1.5-fold response, which translates to ≥7-fold signal over noise as the minimal threshold required to score an interaction as positive.
HiBiT-GPCR DNA constructs were diluted in 10 mM Tris pH 8 to a final concentration of 0.01 μg/μL, arrayed in 96-well plates and stored at −20 °C. For transfection, HEK293 cells were suspended in Opti-MEM (without phenol red) supplemented with 2% fetal bovine serum (Seradigm) and 100 units/mL penicillin–streptomycin (Gibco) at a final concentration of 220,000 cells/mL and dispensed into white 96-well plates at 90 μL/well. Subsequent transfections and screens were carried using an Agilent Bravo Automated Liquid Handling Platform. First, the 96-well HiBiT DNA arrays were diluted 25-fold in Opti-MEM (without serum or phenol red) to a final concentration of 0.0004 μg/μL and 20 μL of the diluted DNAs were transferred into new 96-well plates. Next, promoterless carrier DNA (1 μg/μL) was diluted 25-fold (0.04 μg/μL) and then dispensed into the diluted arrays at 20 μL/well. Following brief mixing, Viafect transfection reagent (Promega) diluted 16-fold into Opti-MEM was dispensed into the plates at 40 μL/well. After mixing by pipetting, plates were incubated for 10 min on the pipetting station deck. The DNA-transfection reagent complexes were then added to plates containing cells. To facilitate the screen, 10 μL of DNA-transfection reagent complexes were added in duplicates to the top 4 and bottom 4 rows, resulting in two identical 48-well arrays per plate. Plates with transfected cells were incubated for 18–20 h at 37 °C/5% CO2. A screen of each tracer across the entire library using two different concentrations requires duplicate plates of transfected cells. Depending on the number of tracers being screened, transfections can be scaled up using the same ratios. The next day, for each tracer, four 20× screening solutions in tracer dilution buffer (Promega) were prepared: two duplicates at final concentration of 20 μM and two duplicates at a final concentration of 2 μM. […] The four resulting solutions were diluted 4-fold in Opti-MEM without serum or phenol red to generate 5× solutions (5 µM and 0.5 µM tracer +/− 100 μM competing compound). To screen the library, a BioTek MultiFlo FX liquid dispenser was used to dispense 22.5 µL of tracer solution to the top 4 rows and 22.5 µL tracer + competing compound solution to the 4 bottom rows. Plates were briefly mixed on an orbital shaker and incubated for 1.5 h at room temperature. […] Plates were briefly mixed on an orbital shaker and incubated for 15 min to allow complementation.
(BRET reads energy transfer from a luciferase to a nearby fluorophore.)

T1 sequence (P48039 whole entry): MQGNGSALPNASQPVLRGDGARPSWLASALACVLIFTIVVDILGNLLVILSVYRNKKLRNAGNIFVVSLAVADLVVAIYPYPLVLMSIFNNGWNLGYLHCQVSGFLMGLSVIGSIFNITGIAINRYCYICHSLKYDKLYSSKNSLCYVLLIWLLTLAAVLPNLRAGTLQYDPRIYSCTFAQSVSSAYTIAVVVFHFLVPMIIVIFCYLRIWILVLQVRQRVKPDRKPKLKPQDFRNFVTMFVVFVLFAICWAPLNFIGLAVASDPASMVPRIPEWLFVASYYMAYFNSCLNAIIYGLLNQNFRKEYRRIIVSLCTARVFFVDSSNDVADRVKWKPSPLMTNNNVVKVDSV

For the molecule `O=C(CCOCCOCCOCCOCCNC(=O)CCc1ccc2n1[B-](F)(F)[N+]1=C(c3ccc[nH]3)C=CC1=C2)NCCCN1CCN(C2=Nc3ccccc3Oc3ccc(Cl)cc32)CC1` [Loxapine-a-2-NB590], the “NanoBRET Fold Response” value (MTNR1A, tracer 0.1μM) is 0.92 and the “NanoBRET Fold Response” value (MTNR1A, tracer 1μM) was 1.12.
The corresponding values for `CCCn1c(=O)c2[nH]c(-c3ccc(OCC(=O)NCCNC(=O)CCOCCNC(=O)c4ccc(CNC(=O)CCc5ccc6n5[B-](F)(F)[N+]5=C(c7ccc[nH]7)C=CC5=C6)cc4)cc3)nc2n(CCC)c1=O` [XAC-3-NB590] are 1.02 and 1.01.
The corresponding values for `COc1ccccc1N1CCN(CCCCN2C(=O)c3ccc(CNC(=O)CCOCCOCCOCCOCCNC(=O)CCc4ccc5n4[B-](F)(F)[N+]4=C(c6ccc[nH]6)C=CC4=C5)cc3C2=O)CC1` [NAN-190-2-NB590] are 0.99 and 0.97.
With `O=C(CCc1ccc2n1[B-](F)(F)[N+]1=C(c3ccc[nH]3)C=CC1=C2)NCc1ccc(C(=O)NCCOCCOCCNCC(O)COc2cccc3ccccc23)cc1` (stereo not shown) [Propranolol-3-NB590], the “NanoBRET Fold Response” value by setting is: (MTNR1A, 0.1μM) 0.98; (MTNR1A, 1μM) 0.94.
With `COc1ccccc1N1CCN(CCCCN2C(=O)c3ccc(CNC(=O)CCOCCNC(=O)c4ccc(CNC(=O)CCc5ccc6n5[B-](F)(F)[N+]5=C(c7ccc[nH]7)C=CC5=C6)cc4)cc3C2=O)CC1` [NAN-190-3-NB590], the “NanoBRET Fold Response” value (MTNR1A, tracer 0.1μM) was found to be 1.01 and the “NanoBRET Fold Response” value (MTNR1A, tracer 1μM) was 0.80.
`O=C(CCc1ccc2n1[B-](F)(F)[N+]1=C(c3ccc[nH]3)C=CC1=C2)NCc1ccc(C(=O)NCCOCCC(=O)N[C@@H]2CC[C@@]3(O)[C@H]4Cc5ccc(O)c6c5[C@@]3(CCN4CC3CC3)[C@H]2O6)cc1` [Naltrexone-3-NB590]: the “NanoBRET Fold Response” value reads like this: (MTNR1A, tracer 0.1μM) 0.76; (MTNR1A, tracer 1μM) 1.18.
For the molecule `CCOC(=O)c1cc(C#N)c(N2CCC(C(=O)NS(=O)(=O)Cc3ccccc3/C=C/C(=O)NCCNC(=O)CCc3ccc4n3[B-](F)(F)[N+]3=C(c5ccc[nH]5)C=CC3=C4)CC2)nc1C` [AZD1283-1-NB590], the “NanoBRET Fold Response” value worked out at 1.00 (MTNR1A, 0.1μM) and 1.00 (MTNR1A, 1μM).
As to `COc1ccc2[nH]c(-c3ccc(CNC(=O)CCOCCOCCOCCOCCNC(=O)CCc4ccc5n4[B-](F)(F)[N+]4=C(c6ccc[nH]6)C=CC4=C5)cc3)c(CCNC(C)=O)c2n1` [AzomelatoninICO9-2-NB590], the “NanoBRET Fold Response” value (0.1μM tracer) is given as 1.06 and the “NanoBRET Fold Response” value (1μM tracer) is listed as 1.42.
As for `CC(C)N(CC[C@H](c1ccccc1)c1cc(CCNC(=O)CCOCCOCCOCCOCCNC(=O)CCc2ccc3n2[B-](F)(F)[N+]2=C(c4ccc[nH]4)C=CC2=C3)ccc1O)C(C)C` [Tolterodine-2-NB590], the “NanoBRET Fold Response” value by setting is: (MTNR1A, tracer 0.1μM) 1.07; (MTNR1A, tracer 1μM) 0.79.
`CN1CCN(C2=Nc3cc(Cl)ccc3N(CC(=O)NCCOCCOCCOCCOCCNC(=O)CCc3ccc4n3[B-](F)(F)[N+]3=C(c5ccc[nH]5)C=CC3=C4)c3ccccc32)CC1` [Clozapine-c-2-NB590]: the “NanoBRET Fold Response” value runs as follows: (MTNR1A, 0.1μM tracer) 0.97; (MTNR1A, 1μM tracer) 1.07.
Turning to `N#CN=C(NCCCOc1cccc(CN2CCCCC2)c1)NCCNC(=O)CCOCCOCCOCCOCCNC(=O)CCc1ccc2n1[B-](F)(F)[N+]1=C(c3ccc[nH]3)C=CC1=C2` [Aminopotentidine-2-NB590], the “NanoBRET Fold Response” value runs as follows: (MTNR1A, tracer 0.1μM) 1.00; (MTNR1A, tracer 1μM) 1.00.
As to `COc1ccc2c(n1)c(CCNC(C)=O)cn2CCNC(=O)CCc1ccc2n1[B-](F)(F)[N+]1=C(c3ccc[nH]3)C=CC1=C2` [Azamelatonin-1-NB590], the “NanoBRET Fold Response” value runs as follows: (0.1μM tracer) 1.12; (1μM tracer) 1.55.
As for `CC(C)N(CC[C@H](c1ccccc1)c1cc(CCNC(=O)c2ccc(CNC(=O)CCc3ccc4n3[B-](F)(F)[N+]3=C(c5ccc[nH]5)C=CC3=C4)cc2)ccc1O)C(C)C` [Tolterodine-BZ-NB590], the “NanoBRET Fold Response” value is 0.97 (MTNR1A, tracer 0.1μM) and 1.03 (MTNR1A, tracer 1μM).
In the same order, the values of `O=C(CCc1ccc2n1[B-](F)(F)[N+]1=C(c3ccc[nH]3)C=CC1=C2)NCCOCCOCCNC(=O)OCCOCCN1CCN(C2=Nc3ccccc3Sc3ccccc32)CC1` [Quetiapine-a-2-NB590] are 1.00 and 1.05.
The corresponding values for `Cc1cc2c(s1)Nc1ccccc1N=C2N1CCN(CCCNC(=O)CCOCCOCCOCCOCCNC(=O)CCc2ccc3n2[B-](F)(F)[N+]2=C(c4ccc[nH]4)C=CC2=C3)CC1` [Olanzapine-a-2-NB590] are 1.01 and 1.07.
The corresponding values for `CN(C)CCC=C1c2ccccc2CCc2ccc(C(=O)NCCNC(=O)CCOCCOCCOCCOCCNC(=O)CCc3ccc4n3[B-](F)(F)[N+]3=C(c5ccc[nH]5)C=CC3=C4)cc21` [Amitriptyline-b-2-NB590] are 0.96 and 0.98.
In the case of `O=C(CCOCCOCCOCCOCCNC(=O)CCc1ccc2n1[B-](F)(F)[N+]1=C(c3ccc[nH]3)C=CC1=C2)NCCCN1CCN(C2=Nc3cc(Cl)ccc3Nc3ccccc32)CC1` [Clozapine-a-2-NB590], the “NanoBRET Fold Response” value was 1.03 (MTNR1A, 0.1μM tracer) and 1.00 (MTNR1A, 1μM tracer).
For the molecule `CN1CCN(C2=Nc3cc(Cl)ccc3Nc3ccc(CNC(=O)CCOCCOCCOCCOCCNC(=O)CCc4ccc5n4[B-](F)(F)[N+]4=C(c6ccc[nH]6)C=CC4=C5)cc32)CC1` [Clozapine-b-2-NB590], the “NanoBRET Fold Response” value (MTNR1A, 1μM tracer) is 1.02.
In the case of `Cc1nc2n(c(=O)c1CCN1CCC(c3noc4cc(F)ccc34)CC1)CCCC2OC(=O)NCCOCCOCCOCCOCCNC(=O)CCc1ccc2n1[B-](F)(F)[N+]1=C(c3ccc[nH]3)C=CC1=C2` (stereo not shown) [Risperidone-2-NB590], the “NanoBRET Fold Response” value was 0.97 (MTNR1A, tracer 0.1μM) and 0.93 (MTNR1A, tracer 1μM).

For the origin of these results see publication PMC8151276, “An Integrated Approach toward NanoBRET Tracers for Analysis of GPCR Ligand Engagement” (Molecules, 2021).
